Experimental data from patent publication US8609715B2, “Heteroarylcarboxylic acid ester derivative” (Ajinomoto Co., Inc., priority 2009, dated 2013).
Counter-ions that a name gives are not always drawn.

The molecules below were run against recombinant human enteropeptidase (Homo sapiens (Human), UniProt P98073) (assay: Measurement of enteropeptidase inhibitory activity). Settings: Dixon plot.
Assay type: biochemical
Experimental: Measurement of Enteropeptidase Inhibitory Activity
Using a 96 well plate (#3915, Costar), a test compound (25 μL), 400 mM Tris-HCl buffer (pH 8.0, 25 μL) and 0.5 mg/mL fluorescence enzyme substrate (Gly-Asp-Asp-Asp-Asp-Lys-β-Naphtylamide, 25 μL) were mixed, and recombinant human enteropeptidase (R&D Systems, Inc., 25 μL) was added. Using a fluorescence plate reader fmax (Molecular Devices, Inc.), the reaction rate was measured from the time-course changes at excitation wavelength 320 nm and fluorescence wavelength 405 nm. The Ki value was calculated from the concentration of the test compound, reciprocal of reaction rate, and Km value of the enzyme substrate, and by using Dixon plot.

Sequence of recombinant human enteropeptidase (P98073 whole entry): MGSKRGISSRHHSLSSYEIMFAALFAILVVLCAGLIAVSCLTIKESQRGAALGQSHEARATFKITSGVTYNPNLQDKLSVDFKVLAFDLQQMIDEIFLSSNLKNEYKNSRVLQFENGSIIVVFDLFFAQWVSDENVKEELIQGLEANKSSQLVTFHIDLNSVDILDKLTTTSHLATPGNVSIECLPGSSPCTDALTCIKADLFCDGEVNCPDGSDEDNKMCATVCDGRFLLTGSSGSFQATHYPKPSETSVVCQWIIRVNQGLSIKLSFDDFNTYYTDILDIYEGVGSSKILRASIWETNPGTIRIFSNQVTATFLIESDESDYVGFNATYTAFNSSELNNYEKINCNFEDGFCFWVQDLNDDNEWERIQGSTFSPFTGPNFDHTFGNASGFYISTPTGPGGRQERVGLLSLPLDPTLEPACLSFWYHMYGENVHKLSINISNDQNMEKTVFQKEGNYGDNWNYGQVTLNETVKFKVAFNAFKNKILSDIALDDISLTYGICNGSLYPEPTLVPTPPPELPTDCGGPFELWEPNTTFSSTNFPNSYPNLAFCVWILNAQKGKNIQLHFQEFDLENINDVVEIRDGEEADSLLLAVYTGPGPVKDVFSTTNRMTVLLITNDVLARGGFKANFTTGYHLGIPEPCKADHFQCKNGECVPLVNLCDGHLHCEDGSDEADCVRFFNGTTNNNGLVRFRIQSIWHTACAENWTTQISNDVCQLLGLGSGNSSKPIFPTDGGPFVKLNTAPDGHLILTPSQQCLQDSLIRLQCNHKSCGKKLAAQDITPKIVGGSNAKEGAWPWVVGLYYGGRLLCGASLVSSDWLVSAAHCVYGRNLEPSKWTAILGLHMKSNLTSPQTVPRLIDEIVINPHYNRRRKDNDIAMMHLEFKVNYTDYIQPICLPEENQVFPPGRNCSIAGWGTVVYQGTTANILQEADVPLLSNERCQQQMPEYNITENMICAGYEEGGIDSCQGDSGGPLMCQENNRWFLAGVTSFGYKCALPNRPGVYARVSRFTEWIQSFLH

SMILES | Ki
CC(Cc1ccc(C(=O)Oc2ccc(C(=N)N)cc2)o1)C(=O)NCCc1ccccc1 (centres unmarked) [Compound A-47, 5-{2-methyl-2-[(2-phenylethyl)-carbamoyl]ethyl}furan-2-carboxylic acid 4-amidinophenyl ester trifluoroacetic acid salt] | 1.9 nM
CC(C)CCNC(=O)C(C)Cc1ccc(C(=O)Oc2ccc(C(=N)N)cc2)o1 (centres unmarked) [Compound A-48] | 1.3 nM
CC(Cc1ccc(C(=O)Oc2ccc(C(=N)N)cc2)o1)C(=O)NCCN(C)C (centres unmarked) [Compound A-49] | 7.6 nM
CC(Cc1ccc(C(=O)Oc2ccc(C(=N)N)cc2)o1)C(=O)NCCO (centres unmarked) [Compound A-50] | 4.4 nM
CC(Cc1ccc(C(=O)Oc2ccc(C(=N)N)cc2)o1)C(=O)N1CCCC1 (centres unmarked) [Compound A-51] | 4.9 nM
CC(Cc1ccc(C(=O)Oc2ccc(C(=N)N)cc2)o1)C(=O)N1CCCC(C(=O)O)C1 (centres unmarked) [Compound A-52, N-{3-[5-(4-amidinophenoxycarbonyl)-furan-2-yl]-2-methylpropanoyl}nipecotic acid trifluoroacetic acid salt] | 2.5 nM
C=CCN(CC(=O)O)C(=O)CCc1ccc(C(=O)Oc2ccc(C(=N)N)cc2)o1 [Compound A-55, N-{3-[5-(4-amidinophenoxycarbonyl)-furan-2-yl]-propionyl}-N-allylglycine trifluoroacetic acid salt] | 1.3 nM
CC(Cc1ccc(C(=O)Oc2ccc(C(=N)N)cc2)o1)C(=O)NCP(=O)(O)O (centres unmarked) [Compound A-56] | 1.1 nM
CC(Cc1ccc(C(=O)Oc2ccc(C(=N)N)cc2)o1)C(=O)N[C@@H](CS(=O)(=O)O)C(=O)O (some centres unmarked) [Compound A-57] | 0.39 nM
CC(CCC(=O)O)Cc1ccc(C(=O)Oc2ccc(C(=N)N)cc2)o1 (centres unmarked) [Compound A-58, 5-[5-(4-amidinophenoxycarbonyl)furan-2-yl]-4-methylpentanoic acid trifluoroacetic acid salt] | 0.7 nM
CC(CCC(=O)N[C@@H](CC(=O)O)C(=O)O)Cc1ccc(C(=O)Oc2ccc(C(=N)N)cc2)o1 (stereo partly drawn) [Compound A-59, N-{5-[5-(4-amidinophenoxycarbonyl)furan-2-yl]-4-methylpentanoyl}-L-aspartic acid trifluoroacetic acid salt] | 0.35 nM
N=C(N)c1ccc(OC(=O)c2ccc(CC(CCC(=O)O)C(=O)O)o2)cc1 (centres unmarked) [Compound A-60, 5-[5-(4-amidinophenoxycarbonyl)furan-2-yl]-4-carboxypentanoic acid trifluoroacetic acid salt] | 0.31 nM
N=C(N)c1ccc(OC(=O)c2ccc(CC(CCC(=O)O)C(=O)N[C@@H](CC(=O)O)C(=O)O)o2)cc1 (stereo partly drawn) [Compound A-61, N-{3-[5-(4-amidinophenoxycarbonyl)-furan-2-yl]-2-(carboxyethyl)propanoyl}-L-aspartic acid trifluoroacetic acid salt] | 0.42 nM
CC(Cc1cc(C(=O)Oc2ccc(C(=N)N)cc2)co1)C(=O)N[C@@H](CC(=O)O)C(=O)O (stereo partly drawn) [Compound A-62, N-{3-[4-(4-amidinophenoxycarbonyl)-furan-2-yl]-2-methylpropanoyl}-L-aspartic acid trifluoroacetic acid salt] | 2.1 nM
CC(Cc1cc(C(=O)Oc2ccc(C(=N)N)cc2F)co1)C(=O)O (centres unmarked) [Compound A-63, 3-[4-(4-amidino-2-fluorophenoxycarbonyl)furan-2-yl]-2-methylpropanoic acid trifluoroacetic acid salt] | 0.53 nM
CC(Cc1cc(C(=O)Oc2ccc(C(=N)N)cc2)co1)C(=O)NCP(=O)(O)O (centres unmarked) [Compound A-64] | 2.5 nM
CC(Cc1cc(C(=O)Oc2ccc(C(=N)N)cc2)co1)C(=O)N[C@@H](CS(=O)(=O)O)C(=O)O (some centres unmarked) [Compound A-65] | 1 nM
CC(Cc1cc(C(=O)Oc2ccc(C(=N)N)cc2F)co1)C(=O)N[C@@H](CC(=O)O)C(=O)O (some centres unmarked) [Compound A-66] | 0.32 nM
CC(Cc1coc(C(=O)Oc2ccc(C(=N)N)cc2)c1)C(=O)N[C@@H](CC(=O)O)C(=O)O (stereo partly drawn) [Compound A-67, N-[3-[2-(4-amidinophenoxycarbonyl)-furan-4-yl]-2-methylpropanoyl]-L-aspartic acid trifluoroacetic acid salt] | 0.52 nM
N=C(N)c1ccc(OC(=O)c2ccc(-c3ccc(C(=O)N[C@@H](CC(=O)O)C(=O)O)cc3)o2)cc1 [Compound A-68, N-{4-[5-(4-amidinophenoxycarbonyl)-furan-2-yl]benzoyl}-L-aspartic acid trifluoroacetic acid salt] | 2.2 nM
N=C(N)c1ccc(OC(=O)c2ccc(-c3ccc(C(=O)NCC(=O)O)cc3)o2)cc1 [Compound A-69] | 4.7 nM
N=C(N)c1ccc(OC(=O)c2ccc(-c3ccc(C(=O)NCP(=O)(O)O)cc3)o2)cc1 [Compound A-70] | 2.7 nM
N=C(N)c1ccc(OC(=O)c2ccc(-c3cccc(C(=O)N[C@@H](CC(=O)O)C(=O)O)c3)o2)cc1 [Compound A-71, N-{3-[5-(4-amidinophenoxycarbonyl)-furan-2-yl]benzoyl}-L-aspartic acid trifluoroacetic acid salt] | 1.6 nM
CC(Cc1ccc(C(=O)Oc2ccc(C(=N)N)cc2)o1)C(=O)SC(CC(=O)O)C(=O)O (stereo not drawn) [Compound A-73, S-{3-[5-(4-amidinophenoxycarbonyl)-furan-2-yl]-2-methylpropionyl}thiomalic acid trifluoroacetic acid salt] | 0.88 nM
CC(Cc1ccc(C(=O)Oc2ccc(C(=N)N)cc2)o1)C(=O)NN(CC(=O)O)CC(=O)O (centres unmarked) [Compound A-74, (N′-carboxymethyl-{3-[5-(4-amidinophenoxycarbonyl)furan-2-yl]-2-methylpropane}hydrazido)-acetic acid trifluoroacetic acid salt] | 2.6 nM

Now from value to molecule:

Ki | SMILES
9.29 nM | C/C(=C\c1ccc(C(=O)Oc2ccc(C(=N)N)cc2)s1)C(=O)NCC(=O)O [Compound B-2]
5.72 nM | C/C(=C\c1ccc(C(=O)Oc2ccc(C(=N)N)cc2)s1)C(=O)N[C@@H](CO)C(=O)O [Compound B-3]
1.44 nM | CC(Cc1ccc(C(=O)Oc2ccc(C(=N)N)cc2)s1)C(=O)O (centres unmarked) [Compound B-6, 3-[5-(4-amidinophenoxycarbonyl)-thiophen-2-yl]-2-methylpropanoic acid trifluoroacetic acid salt]
2.15 nM | C/C(=C\c1ccc(C(=O)Oc2ccc(C(=N)N)cc2)s1)C(=O)N(CCCO)CCS(=O)(=O)O [Compound B-7, N-{(2E)-3-[5-(4-amidinophenoxycarbonyl)thiophen-2-yl]-2-methylpropenoyl}-N-hydroxypropyltaurine trifluoroacetic acid salt]
0.84 nM | C/C(=C\c1ccc(C(=O)Oc2ccc(C(=N)N)cc2[N+](=O)[O-])s1)C(=O)O [Compound B-8]
1.41 nM | CC(Cc1ccc(C(=O)Oc2ccc(C(=N)N)cc2[N+](=O)[O-])s1)C(=O)N(CCCO)CC(=O)O (centres unmarked) [Compound B-11, N-{3-[5-(4-amidino-2-nitrophenoxycarbonyl)thiophen-2-yl]-2-methylpropanoyl}-N-(3-hydroxypropyl)glycine hydrochloride]
2.21 nM | CC(Cc1ccc(C(=O)Oc2ccc(C(=N)N)cc2)s1)C(=O)NCC(=O)O (centres unmarked) [Compound B-12]
0.29 nM | CC(Cc1ccc(C(=O)Oc2ccc(C(=N)N)cc2Br)s1)C(=O)O (centres unmarked) [Compound B-16, 3-[5-(4-amidino-2-bromophenoxycarbonyl)thiophen-2-yl]-2-methylpropionic acid trifluoroacetic acid salt]
0.42 nM | CC(Cc1ccc(C(=O)Oc2ccc(C(=N)N)cc2Cl)s1)C(=O)O (centres unmarked) [Compound B-17]
0.42 nM | CC(Cc1ccc(C(=O)Oc2ccc(C(=N)N)cc2F)s1)C(=O)O (centres unmarked) [Compound B-19]
0.28 nM | CC(Cc1ccc(C(=O)Oc2ccc(C(=N)N)cc2F)s1)C(=O)N[C@@H](CC(=O)O)C(=O)O (some centres unmarked) [Compound B-20]
0.56 nM | CC(Cc1ccc(C(=O)Oc2ccc(C(=N)N)cc2F)s1)C(=O)N[C@@H](CCC(=O)O)C(=O)O (some centres unmarked) [Compound B-21]
0.5 nM | CC(Cc1ccc(C(=O)Oc2ccc(C(=N)N)cc2F)s1)C(=O)N[C@H](CC(=O)O)C(=O)O (some centres unmarked) [Compound B-22]
0.49 nM | CC(Cc1ccc(C(=O)Oc2ccc(C(=N)N)c(F)c2)s1)C(=O)O (centres unmarked) [Compound B-24]
0.79 nM | C[C@H](Cc1ccc(C(=O)Oc2ccc(C(=N)N)cc2F)s1)C(=O)N[C@@H](CC(=O)O)C(=O)O [Compound B-25, N-{3-[5-(4-amidino-2-fluorophenoxycarbonyl)thiophen-2-yl]-2R-methylpropionyl}-L-aspartic acid trifluoroacetic acid salt]
2.2 nM | CC(C)C[C@H](Cc1ccc(C(=O)Oc2ccc(C(=N)N)cc2F)s1)C(=O)N[C@@H](CC(=O)O)C(=O)O [Compound B-26, N-{3-[5-(4-amidino-2-fluorophenoxycarbonyl)thiophen-2-yl]-2R-isobutylpropionyl}-L-aspartic acid trifluoroacetic acid salt]
0.95 nM | CC(C)C[C@@H](Cc1ccc(C(=O)Oc2ccc(C(=N)N)cc2F)s1)C(=O)N[C@@H](CC(=O)O)C(=O)O [Compound B-27]
1.1 nM | CCC[C@H](Cc1ccc(C(=O)Oc2ccc(C(=N)N)cc2F)s1)C(=O)N[C@@H](CC(=O)O)C(=O)O [Compound B-28]
0.58 nM | CCC[C@@H](Cc1ccc(C(=O)Oc2ccc(C(=N)N)cc2F)s1)C(=O)N[C@@H](CC(=O)O)C(=O)O [Compound B-29]
0.52 nM | CC(Cc1ccc(C(=O)Oc2ccc(C(=N)N)c(F)c2)s1)C(=O)N[C@@H](CC(=O)O)C(=O)O (some centres unmarked) [Compound B-30]
0.31 nM | N=C(N)c1ccc(OC(=O)c2ccc(CCC(=O)N[C@@H](CC(=O)O)C(=O)O)s2)c(F)c1 [Compound B-32, N-{3-[5-(4-amidino-2-fluorophenoxycarbonyl)thiophen-2-yl]propanoyl}-L-aspartic acid trifluoroacetic acid salt]
2.8 nM | CCCC(Cc1ccc(C(=O)Oc2ccc(C(=N)N)cc2)s1)C(=O)N[C@@H](CC(=O)O)C(=O)O (some centres unmarked) [Compound B-33]
